Data: patent US7855216B2, “Aza-indolyl compounds and methods of use” (Genentech, Inc., priority 2006, dated 2010)

What was measured:
[1] = test system: HCT116 and A375 cell lines; test: Cell proliferation assay (CellTiter-Glo); type: cell-based; conditions: Homo sapiens; in either cell line (HCT116 or A375); 72 h exposure
Procedure: Compounds are tested in a cell proliferation assay using the following cell lines:
(§1) Both cell lines are maintained in DMEM/F12 (1:1) media (Gibco) supplemented with 10% FCS at 37° C. in a 5% CO2 humidified incubator.
Cells are seeded in 96-well plates at 2,000 cells/well and after 24 hours they are exposed to different concentrations of compounds in 0.83% DMSO. Cells are grown for a further 72 h, and an equal volume of CellTiter-Glo reagent (Promega) is added to each well. This lyses the cells and generates a luminescent signal proportional to the amount of ATP released (and therefore proportional to the number of cells in the well) that can be detected using a multi-well luminometer.
The EC50 is defined as the concentration at which a given compound achieves 50% inhibition of control. IC50 values are calculated using the XLfit software package (version 2.0.5).

[2] = test system: phospho-ERK in HCT116 and A375 cell lines; test: Phospho-ERK cell-based assay; conditions: Homo sapiens; in either cell line (HCT116 or A375); 2 h or 24 h exposure
Procedure: Compounds are tested in a cell-based phospho-ERK ELISA using the following cell lines:
as §1
Cells are seeded in 96-well plates at 2,000 cells/well and after 24 h they are exposed to different concentrations of compounds in 0.83% DMSO. Cells are grown for a further 2 h or 24 h, fixed with formaldehyde (2% final) and permeabilised with methanol. Following blocking with TBST-3% BSA, fixed cells are incubated with primary antibody (anti-phospho ERK from rabbit) over-night at 4° C. Cells are incubated with Propidium Iodide (DNA fluorescent dye) and detection of cellular p-ERK is performed using an anti-rabbit secondary antibody conjugated to the fluorescent Alexa Fluor 488 dye (Molecular probes). The fluorescence is analysed using the Acumen Explorer (TTP Labtech), a laser-scanning microplate cytometer, and the Alexa Fluor 488 signal is normalised to the PI signal (proportional to cell number).
The EC50 is defined as the concentration at which a given compound achieves a signal half way between the baseline and the maximum response. EC50 values are calculated using the XLfit software package (version 2.0.5).

| SMILES | EC50 [1] | EC50 [2] |
| --- | --- | --- |
| N#Cc1cccc(Cn2c(C(=O)NOCCO)c(Nc3ccc(I)cc3F)c3cnccc32)c1 [Example 48] | < 10 µM | < 10 µM |
| CSc1ccc(Nc2c(C(=O)NOC(C)(C)CO)n(C)c3ccncc23)c(F)c1 [Example 57] | < 10 µM | < 10 µM |
| Cn1c(C(=O)NOC[C@H](O)CO)c(Nc2ccc(I)cc2F)c2cnccc21 [Example 5, 3-(2-Fluoro-4-iodo-phenylamino)-1-methyl-1H-pyrrolo[3,2-c]pyridine-2-carboxylic acid ((R)-2,3-dihydroxy-propoxy)-amide] | < 10 µM | < 10 µM |
| Cn1c(C(=O)NOCC2CC2)c(Nc2ccc(I)cc2F)c2cnccc21 [Example 15] | < 10 µM | < 10 µM |
| CN(C)C(=O)c1cccc(Cn2c(C(=O)NOCCO)c(Nc3ccc(I)cc3F)c3cnccc32)c1 [Example 45] | < 10 µM | < 10 µM |
| Cn1c(C(=O)NOCCO)c(Nc2ccc(I)cc2F)c2cncc(Cl)c21 [Example 39] | < 10 µM | < 10 µM |
| O=C(NOCCO)c1c(Nc2ccc(I)cc2F)c2cnccc2n1Cc1ccccc1 [Example 24] | < 10 µM | < 10 µM |
| O=C(NOCCO)c1[nH]c2c(F)cncc2c1Nc1ccc(I)cc1F [Example 49] | < 10 µM | < 10 µM |
| Cn1c(C(=O)NO)c(Nc2ccc(I)cc2F)c2cnccc21 [Example 13] | < 10 µM | < 10 µM |
| O=C(NOCCO)c1c(Nc2ccc(I)cc2F)c2cnccc2n1Cc1ccncc1 [Example 25] | < 10 µM | < 10 µM |
| CN(C)C(=O)c1ccc(Cn2c(C(=O)NOCCO)c(Nc3ccc(I)cc3F)c3cnccc32)cc1 [Example 42] | < 10 µM | – |
| O=C(NOCCO)c1c(Nc2ccc(I)cc2F)c2cnccc2n1CC1CC1 [Example 23] | < 10 µM | < 10 µM |
| CSc1ccc(Nc2c(C(=O)NOCCO)n(C)c3ccncc23)c(F)c1 [Example 56] | < 10 µM | < 10 µM |
| C#CCn1c(C(=O)NOCCO)c(Nc2ccc(I)cc2F)c2cnccc21 [Example 64, 3-(2-Fluoro-4-iodo-phenylamino)-1-prop-2-ynyl-1H-pyrrolo[3,2-c]pyridine-2-carboxylic acid (2-hydroxy-ethoxy)-amide] | < 10 µM | < 10 µM |
| CN(C)C(=O)c1ccc(Cn2c(C(=O)NOCCO)c(Nc3ccc(I)cc3F)c3cnccc32)cc1 [Example 30] | – | < 10 µM |
| O=C(NOCCO)c1c(Nc2ccc(I)cc2F)c2cnccc2n1Cc1ccccc1F [Example 27] | < 10 µM | < 10 µM |
| N#Cc1ccc(Cn2c(C(=O)NOCCO)c(Nc3ccc(I)cc3F)c3cnccc32)s1 [Example 46] | < 10 µM | < 10 µM |
| Cn1c(C(=O)NOCCO)c(Nc2ccc(I)cc2F)c2cnccc21 [Example 6, 3-(2-Fluoro-4-iodo-phenylamino)-1-methyl-1H-pyrrolo[3,2-c]pyridine-2-carboxylic acid (2-hydroxy-ethoxy)-amide] | < 10 µM | < 10 µM |
| O=C(NOCCO)c1c(Nc2ccc(I)cc2F)c2cnccc2n1Cc1ccc(C(F)(F)F)cc1 [Example 43] | < 10 µM | < 10 µM |
| O=C(NOCCO)c1[nH]c2ccncc2c1Nc1ccc(I)cc1F [Example 10] | < 10 µM | < 10 µM |
| O=C(NOCCO)c1c(Nc2ccc(I)cc2F)c2cnccc2n1CCCO [Example 41] | < 10 µM | < 10 µM |
| CSc1ccc(Nc2c(C(=O)NOC(C)(C)CO)[nH]c3ccncc23)c(F)c1 [Example 59, 3-(2-Fluoro-4-methylsulfanyl-phenylamino)-1H-pyrrolo[3,2-c]pyridine-2-carboxylic acid (2-hydroxy-1,1-dimethyl-ethoxy)-amide semiformate] | < 10 µM | < 10 µM |
| C[C@H](O)CONC(=O)c1c(Nc2ccc(I)cc2F)c2cncc(F)c2n1C [Example 54] | < 10 µM | < 10 µM |
| O=C(NOCCO)c1c(Nc2ccc(I)cc2F)c2cnccc2n1Cc1cccnc1 [Example 26] | < 10 µM | < 10 µM |
| CN(C)S(=O)(=O)c1cccc(Cn2c(C(=O)NOCCO)c(Nc3ccc(I)cc3F)c3cnccc32)c1 [Example 47] | < 10 µM | < 10 µM |
| CS(=O)(=O)c1ccc(Cn2c(C(=O)NOCCO)c(Nc3ccc(I)cc3F)c3cnccc32)cc1 [Example 29] | – | < 10 µM |
| CN(C)S(=O)(=O)c1ccc(Cn2c(C(=O)NOCCO)c(Nc3ccc(I)cc3F)c3cnccc32)cc1 [Example 50] | – | < 10 µM |
| O=C(NOCCO)c1c(Nc2ccc(I)cc2F)c2cnccc2n1CCc1ccccc1 [Example 31] | < 10 µM | < 10 µM |

Next, values leading:

| EC50 [1] | EC50 [2] | SMILES |
| --- | --- | --- |
| < 10 µM | < 10 µM | O=C(NOCC1CC1)c1[nH]c2ccncc2c1Nc1ccc(I)cc1F [Example 38] |
| – | < 10 µM | COc1ccc(Cn2c(C(N)=O)c(Nc3ccc(I)cc3F)c3cnccc32)cc1 [Example 17] |
| – | < 10 µM | O=C(NOCCO)c1c(Nc2ccc(I)cc2F)c2cnccc2n1Cc1cccc(C(F)(F)F)c1 [Example 28] |
| < 10 µM | < 10 µM | COc1ccc(Cn2c(C(=O)NOCCO)c(Nc3ccc(I)cc3F)c3cnccc32)cc1 [Example 8] |
| < 10 µM | < 10 µM | CCn1c(C(=O)NOCCO)c(Nc2ccc(I)cc2F)c2cnccc21 [Example 11] |
| < 10 µM | < 10 µM | CC(C)(C)ONC(=O)c1[nH]c2ccncc2c1Nc1ccc(I)cc1F [Example 40] |
| – | < 10 µM | CSc1ccc(Nc2c(C(=O)NOCCO)n(C3CC3)c3ccncc23)c(F)c1 [Example 62, 1-Cyclopropyl-3-(2-fluoro-4-methylsulfanyl-phenylamino)-1H-pyrrolo[3,2-c]pyridine-2-carboxylic acid (2-hydroxy-ethoxy)-amide] |
| < 10 µM | < 10 µM | CSc1ccc(Nc2c(C(=O)NOC[C@H](C)O)n(C)c3ccncc23)c(F)c1 [Example 58] |
| < 10 µM | < 10 µM | N#Cc1ccc(Cn2c(C(=O)NOCCO)c(Nc3ccc(I)cc3F)c3cnccc32)cc1 [Example 44] |
| < 10 µM | < 10 µM | O=C(NOCCO)c1c(Nc2ccc(I)cc2F)c2cnccc2n1Cc1ccc(F)cc1 [Example 33] |
| < 10 µM | < 10 µM | COCCn1c(C(=O)NOCCO)c(Nc2ccc(I)cc2F)c2cnccc21 [Example 7] |
| – | < 10 µM | O=C(NOCCO)c1[nH]c2c(Cl)cncc2c1Nc1ccc(I)cc1F [Example 34] |
| < 10 µM | < 10 µM | Cn1c(C(N)=O)c(Nc2ccc(I)cc2F)c2cnccc21 [Example 16] |
| < 10 µM | < 10 µM | O=C(NOCC(O)CO)c1c(Nc2ccc(I)cc2F)c2cnccc2n1C1CC1 (stereo not shown) [Example 63, 1-Cyclopropyl-3-(2-fluoro-4-iodo-phenylamino)-1H-pyrrolo[3,2-c]pyridine-2-carboxylic acid (2,3-dihydroxy-propoxy)-amide] |
| < 10 µM | < 10 µM | O=C(NOCCO)c1c(Nc2ccc(I)cc2F)c2cnccc2n1C1CC1 [Example 61, 1-Cyclopropyl-3-(2-fluoro-4-iodo-phenylamino)-1H-pyrrolo[3,2-c]pyridine-2-carboxylic acid (2-hydroxy-ethoxy)-amide] |
| < 10 µM | < 10 µM | Cn1c(C(=O)NOCCO)c(Nc2ccc(I)cc2F)c2cncc(F)c21 [Example 37] |
| < 10 µM | < 10 µM | O=C(NOCCO)c1c(Nc2ccc(I)cc2F)c2cnccc2n1CC#CCO [Example 65, 3-(2-Fluoro-4-iodo-phenylamino)-1-(4-hydroxy-but-2-ynyl)-1-H-pyrrolo[3,2-c]pyridine-2-carboxylic acid (2-hydroxy-ethoxy)-amide] |
